{
  "source": "patent US12115256B2",
  "about": "“Targeted liposomal gemcitabine and methods thereof” (L.E.A.F. HOLDINGS GROUP LLC, priority 2016, dated 2024)",
  "key": {"[1]": {"molecular_target": "T1, Reduced folate carrier (RFC) (Homo sapiens, UniProt P41440)", "T1 sequence (P41440 1-591)": "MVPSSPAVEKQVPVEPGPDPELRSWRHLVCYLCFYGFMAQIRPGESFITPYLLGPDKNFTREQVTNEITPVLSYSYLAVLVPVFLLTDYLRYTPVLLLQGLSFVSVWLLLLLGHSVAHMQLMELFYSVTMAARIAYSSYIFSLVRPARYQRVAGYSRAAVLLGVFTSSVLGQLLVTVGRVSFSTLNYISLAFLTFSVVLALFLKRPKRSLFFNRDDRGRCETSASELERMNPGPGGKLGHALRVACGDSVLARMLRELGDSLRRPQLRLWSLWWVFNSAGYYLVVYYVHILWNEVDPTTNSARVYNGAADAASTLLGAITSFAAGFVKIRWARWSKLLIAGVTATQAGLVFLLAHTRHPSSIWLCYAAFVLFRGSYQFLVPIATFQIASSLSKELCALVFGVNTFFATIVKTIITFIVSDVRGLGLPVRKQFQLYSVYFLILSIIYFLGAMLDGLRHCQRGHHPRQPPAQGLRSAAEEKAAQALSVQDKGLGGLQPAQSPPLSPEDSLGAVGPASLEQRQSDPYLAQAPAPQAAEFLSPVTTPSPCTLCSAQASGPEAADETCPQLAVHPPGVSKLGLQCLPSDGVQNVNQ", "settings": "read-out: Binding affinity, Km; cited from earlier work"}, "[2]": {"molecular_target": "Folate receptor α (FRα) (Homo sapiens, UniProt P15328)", "sequence (P15328 25-234, species assumed)": "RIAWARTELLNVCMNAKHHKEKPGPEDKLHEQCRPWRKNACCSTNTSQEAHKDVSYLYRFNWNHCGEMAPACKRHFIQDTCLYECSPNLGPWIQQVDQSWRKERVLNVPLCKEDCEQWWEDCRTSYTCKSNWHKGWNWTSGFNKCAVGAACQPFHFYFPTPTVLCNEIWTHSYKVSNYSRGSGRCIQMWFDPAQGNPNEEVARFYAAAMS", "settings": "read-out: Binding affinity, Kd; cited from earlier work"}, "[3]": {"tested_on": "PANC-1 pancreatic cancer cells", "test": "MTS cell proliferation assay, PANC-1", "type": "cell-based", "settings": "Homo sapiens, 96 h, 4 days", "description": "(§1) Cells lines used in the experiments are commercially available from sources such as the ATCC (American Type Culture Collection of Manassas, Virginia, U.S.A). The cell lines, their ATCC accession numbers and growth conditions are listed below. • NCI-H2452 (ATCC® CRL-5946TH); RPMI-1640 (Cat. #30-2001); 10% HI FBS; 1% Pen/Strep; 1% L-Glutamine. • PANC-1 (ATCC® CRL-1469TH); Dulbecco's Modified Eagle's Medium (DMEM) (ATCC® 30-2002TM) 10% HI FBS; 1% Pen/Strep; 1% L-Glutamine • SKBR3; McCoy 5A Medium; 10% HI FBS; 1% Pen/Strep; 1% L-Glutamine.\n(§2) Cancer cell lines were seeded in 96 well plates on day 0 at optimal cell numbers. On day 1, drug formulations were added at 2-fold serial dilutions. The cells were incubated for 3-5 days and the level of inhibition of cellular proliferation was measured by the MTS assay (3-(4,5-dimethylthiazol-2-yl)-5-(3-carboxymethoxyphenyl)-2-(4-sulfophenyl)-2H-tetrazolium assay). The commercially available MTS Cell Proliferation Assay Kit (Colorimetric) (197010) is a colorimetric sensitive quantification of viable cells in proliferation and cytotoxicity assay. […]\n(§3) On day 4, the effect on cellular proliferation was measured with MTS assay. […] The plates were incubated for 2 hours at 37° C. and the absorbance was measured at 490 nm. […]"}, "[4]": {"tested_on": "NCI-H2452 lung (mesothelioma) cancer cells", "test": "MTS cell proliferation assay, NCI-H2452", "type": "cell-based", "settings": "Homo sapiens, 96 h, 4 days, MTS (FIG. 2)", "description": "as §1, §2, §3"}, "[5]": {"tested_on": "HPAF-II pancreatic cancer cells", "test": "MTS cell proliferation assay, HPAF-II", "type": "cell-based", "settings": "Homo sapiens, 96 h, 4 days", "method": "HPAF-II ATCC CRL-1997; Eagle's Minimum Essential Medium (EMEM) (ATCC® 30-2003Tm)); 10% HI FBS; 1% Pen/Strep; 1% L-Glutamine.\nCancer cell lines were seeded in 96 well plates on day 0 at optimal cell numbers. On day 1, drug formulations were added at 2-fold serial dilutions. The cells were incubated for 3-5 days and the level of inhibition of cellular proliferation was measured by the MTS assay (3-(4,5-dimethylthiazol-2-yl)-5-(3-carboxymethoxyphenyl)-2-(4-sulfophenyl)-2H-tetrazolium assay). The commercially available MTS Cell Proliferation Assay Kit (Colorimetric) (197010) is a colorimetric sensitive quantification of viable cells in proliferation and cytotoxicity assay. The assay is based on the reduction of MTS tetrazolium compound by viable cells to generate a colored formazan product that is soluble in cell culture media.\nThe MTS experiments are performed as follows: The night before, the cells are seeded according to the amount of cells required for each cell line in 96 well tissue culture plate. Final volume in each well is 100 μL (see Table of cell lines for reference; all cell lines obtained from ATCC).\nThe seeded cells are incubated at 37° C. and 5% CO 2 overnight. […]\nas §3"}, "[6]": {"tested_on": "CD34+ stem cells (hematopoietic progenitor cells) differentiating into neutrophils", "type": "cell-based", "settings": "human, 2 days", "description": "The level of a molecule called CD15 is elevated on more mature neutrophils. This molecule is elevated on cells in the circles drawn on the plots.\nFIG. 8. Neutrophil differentiation assay. One of the major side effects from gemcitabine treatment is the reduction of neutrophils in the bloodstream that counter infections. This is the result of CD34+ stem cells not differentiating, or developing, into mature neutrophils in the bone marrow. We measured the effect of targeted liposomal gemcitabine on neutrophil differentiation compared to the same dose of gemcitabine (10 and 50 μM.) Hematopoietic progenitor cells (CD34+) were purchased and treated with a panel of growth factors to induce neutrophil differentiation.\nCD34+ stem cells were cultured without (A) or with (B) cytokines (growth factors) that induce neutrophil differentiation in vitro, including stem cell factor, IL-3, and […] for 2 days. […] By day 2, there is a dramatic increase in mature neutrophils depicted in the oval. […] The cells within the drawn gate (FIG. 8B) are larger, more complex maturing neutrophils that are lacking in FIG. 8A.\nIn more detail, experiments were performed as follows: CD34+ stem cells were obtained from ATCC. CD34+ cells were thawed at 37° C. for 1 minute. While on ice, the cells were transferred to cold stem cell medium (“StemSpan SFEM”—Stem Cell Tech. cat. #9650), 10% heat […] fetal bovine serum (HI FBS.) Each vial contained approximated 5×10^5 cell/ml. The cells were placed in 96 well tissue culture plates 35,000 cell/well.\nThe neutrophils GROWTH media contained 100 ng/ml of stem cell factor human (SCF-Sigma H8416, lot #MKBT8036V), 20 ng/ml of granulocyte colony-stimulation factor, human (G-CSF-Sigma H5541, lot #SLBC9602V), 10 ng/ml of IL3 recombinant human (Sigma SRP3090, lot #1008AFC13) in StemSpam media as above.\nThe cells were also treated as follows 1) StemSpam media alone with no growth cytokines; 2) StemSpam media+growth cytokines, and 3) Gemcitabine, Targeted Liposomal Gemcitabine and non-Targeted Liposomal Gemcitabine in amounts as indicated. […]"}, "[7]": {"tested_on": "SKBR3 breast cancer cells", "test": "MTS cell proliferation assay, SKBR3", "type": "cell-based", "settings": "Homo sapiens, SK-BR-3, 96 h, 4 days", "description": "as §1, §2, §3"}},
  "note": "pIC50, pKd: −log10 of the molar value. Like-named read-outs stand apart in the source and are kept apart here.",
  "data": [
    {"smiles": "CN1c2c(nc(N)[nH]c2=O)NCC1CNc1ccc(C(=O)N[C@@H](CCC(=O)O)C(=O)O)cc1", "note": "(some centres unmarked) [5-mTHF, 5-methyltetrahydrofolate]", "values": [
      {"measurement": "Km", "setting": "[1]", "result": "1 to 10", "unit": "µM"},
      {"measurement": "pKd", "setting": "[2]", "result": "8.00 to 9.00"}
    ]},
    {"smiles": "Nc1ccn([C@@H]2O[C@H](CO)[C@@H](O)C2(F)F)c(=O)n1", "note": "[Gemcitabine, gemcitabine]", "values": [
      {"measurement": "pIC50", "setting": "[3]", "result": 4.96},
      {"measurement": "pIC50", "setting": "[4]", "result": 4.52},
      {"measurement": "pIC50", "setting": "[5]", "result": 5.04},
      {"measurement": "Number of live cells within the neutrophil gate (CD15+)", "setting": "[6]", "result": "less than 100"},
      {"measurement": "Percentage of live cells within the neutrophil gate", "setting": "[6]; 10 μM", "result": "less than 5%"},
      {"measurement": "Percentage of live cells within the neutrophil gate", "setting": "[6]; 50 μM", "result": "less than 20%"},
      {"measurement": "pIC50", "setting": "[7]", "result": 3.53}
    ]},
    {"smiles": "Nc1nc2ncc(CNc3ccc(C(=O)N[C@@H](CCC(=O)O)C(=O)O)cc3)nc2c(=O)[nH]1", "note": "[folic acid]", "values": [
      {"measurement": "Km", "setting": "[1]", "result": "200 to 400", "unit": "µM"}
    ]},
    {"smiles": "CN(Cc1cnc2nc(N)nc(N)c2n1)c1ccc(C(=O)N[C@@H](CCC(=O)O)C(=O)O)cc1", "note": "[methotrexate]", "values": [
      {"measurement": "Km", "setting": "[1]", "result": "1 to 5", "unit": "µM"}
    ]}
  ]
}
